Source: patent US12084472B2 (Ardelyx, Inc., priority 2015, dated 2024)

Key:
[1] = system: mice with 5-FU-induced diarrhea; experiment: Chemotherapy-induced diarrhea model (5-FU), fecal form score; type: in vivo, CD-1 female mice; conditions: 5-FU 60 mg/kg IP days 5-11; I-388 30 mg/kg PO BID, teduglutide 0.4 mg/kg SQ BID, days 1-13; FFS days 11-13 summed; FIG. 1
Procedure: Four groups of adult CD-1 female mice on regular chow were dosed with the following BID starting on Day 1: 2 groups, vehicle (10% hydroxypropyl-β-cyclodextrin in PBS; PO; 5 mL/kg); 1 group, Compound I-388 at 30 mg/kg in vehicle (PO; 5 mL/kg); and 1 group, teduglutide 0.4 mg/kg (American Peptide, Sunnyvale, CA; reconstituted in PBS; SQ; 10 mL/kg) 0.4 mg/kg SQ. On Days 5-11, the groups of mice were also given QD IP injections (5 mL/kg) of the following treatments: first vehicle group, PBS and remaining groups, 5-fluorouracil (5-FU) 60 mg/kg (Fresenius Kabi USA, Lake Zurich, IL) diluted in PBS to induce mucositis with diarrhea. Body weight was measured throughout the study and fecal form was scored on Day 11-13 of the study according to the following scale: 0, normal stool; 1, slightly wet and soft stool; 2, wet and unformed stool with moderate perianal staining of the coat; 3, watery stool with severe perianal staining of the coat.
All mice were dosed on day 1-13 with vehicle, with 0.4 mg/kg of teduglutide, or with 30 mg/kg of compound I-388 (vehicle and Cmpd. I-388: PO, […] and teduglutide: SQ, 10 mL/kg). PBS or 5-FU at 60 mg/kg (used to induce mucositis and diarrhea) were administered interperionally (IP; 5 mL/kg) on days 5-11.

[2] = system: small intestine and colon of mice; experiment: Small intestine and colon weight, villus/crypt length, colon crypt depth, plasma GLP-1 and GLP-2 in mice; type: in vivo, CD-1 female mice; conditions: ten consecutive days
Procedure: Tedulgutide (a GLP-2 receptor agonist; American Peptide, catalog #304076, supplied by Bachem) 50 μg/kg in […] was injected SC in a control group BID during the same period. […] The small intestine and colon were collected, flushed with cold PBS to remove contests, patted dry, weighed and further trimmed for histological analysis. Morphometric analysis was performed to determine the villus/crypt length in the proximal jejunum and distal ileum and crypt depth (length) in the proximal colon.
Data for each group are presented as mean±SEM. Statistical analyses were performed using one-way ANOVA followed by Holm-Sidak's multiple comparisons test. Statistical significance compared to vehicle (WD) is marked as *, P<0.05; **, P<0.01, ***, P<0.001, and ****, P<0.0001.

With `CC[C@H](C)[C@H](NC(=O)[C@H](Cc1ccccc1)NC(=O)[C@H](CC(=O)O)NC(=O)[C@H](CCCNC(=N)N)NC(=O)[C@H](C)NC(=O)[C@H](C)NC(=O)[C@H](CC(C)C)NC(=O)[C@H](CC(N)=O)NC(=O)[C@H](CC(=O)O)NC(=O)[C@H](CC(C)C)NC(=O)[C@@H](NC(=O)[C@@H](NC(=O)[C@H](CC(N)=O)NC(=O)[C@H](CCSC)NC(=O)[C@H](CCC(=O)O)NC(=O)[C@H](CC(=O)O)NC(=O)[C@H](CO)NC(=O)[C@H](Cc1ccccc1)NC(=O)[C@H](CO)NC(=O)CNC(=O)[C@H](CC(=O)O)NC(=O)CNC(=O)[C@@H](N)Cc1c[nH]cn1)[C@@H](C)O)[C@@H](C)CC)C(=O)N[C@@H](CC(N)=O)C(=O)N[C@@H](Cc1c[nH]c2ccccc12)C(=O)N[C@@H](CC(C)C)C(=O)N[C@H](C(=O)N[C@@H](CCC(N)=O)C(=O)N[C@H](C(=O)N[C@@H](CCCCN)C(=O)N[C@H](C(=O)N[C@H](C(=O)N[C@@H](CC(=O)O)C(=O)O)[C@@H](C)O)[C@@H](C)CC)[C@@H](C)O)[C@@H](C)CC` [teduglutide] the “cumulative fecal form score (FFS)” value [1] was “significantly improved”, the “increase of colon weight” value ([2]; teduglutide 50 μg/kg SC BID (trend), I-389 100 mg/kg PO BID co-dosed with sitagliptin 3.6 g/L in drinking water, FIG. 7, FIG. 8) was 14% and the “increase of small intestine weight” value ([2]; teduglutide 50 μg/kg SC BID, FIG. 7) was 48%. For the same molecule, the “increase of villus-crypt length in the proximal jejunum” value ([2]; teduglutide 50 μg/kg SC BID, I-389 100 mg/kg PO BID + sitagliptin, FIG. 9) was 55% and the “increase of villus-crypt length in the distal ileum” value ([2]; teduglutide 50 μg/kg SC BID, I-389 100 mg/kg PO BID + sitagliptin, FIG. 10) was 30%.
